Assay results reported in PMC8955938, “c-Myc Protein Level Affected by Unsymmetrical Bisacridines Influences Apoptosis and Senescence Induced in HCT116 Colorectal and H460 Lung Cancer Cells” (International Journal of Molecular Sciences, 2022).
Where “and” joins values, the source holds several entries; their conditions need not be identical. Equal entries are not always repeated.

Tests used:
Type in all cases: cell-based, human
[1] = system: H460 cells; assay: Colony-forming assay, H460; conditions: H460, 120 h treatment at IC90 doses, about 250 cells cultured two weeks in fresh medium
Experimental: (§1) The ability of cells to return to proliferation after UAs treatment was measured by a colony-forming assay. After drug treatment, 250 HCT116 and H460 cells were harvested and seeded in a new 6-well plate containing fresh medium without the drug and incubated for two weeks. Untreated cells were used as controls. After two weeks, colonies were fixed with 80% ethanol, stained with crystal violet, counted, and photos were taken.

[2] = system: cleaved PARP in HCT116 cells; assay: PARP cleavage flow cytometry, HCT116; conditions: HCT116, IC90 doses, up to 120 h
Experimental: (§2) PARP cleavage was determined using Alexa Fluor 647-conjugated anti-cleaved PARP antibody (BD Biosciences, San Diego, CA, USA) according to the manufacturer’s instructions. Briefly, HCT116 and H460 cells (1 × 10^6) were trypsinized, pelleted, washed twice with ice-cold PBS and fixed in Fixation Buffer for 20 min on ice. After fixation, cells were rinsed twice with Perm Wash Buffer, stained with Alexa Fluor 647-conjugated anti-cleaved PARP antibody for 30 min, rinsed with Perm Wash Buffer and analyzed by flow cytometry with FACS Accuri C6 (BD, San Jose, CA, USA).

[3] = system: HCT116 cells; assay: Colony-forming assay, HCT116; conditions: HCT116, 120 h treatment at IC90 doses, about 250 cells cultured two weeks in fresh medium
Experimental: as §1

[4] = system: H460 cells; assay: MTT cell growth inhibition assay, H460
Experimental: (§3) To assess cell viability, the MTT assay was used. HCT116, H460, CCD 841 CoN and MRC-5 cells (20,000/well and 50,000/well for cancer and normal cells, respectively) were seeded in 24-well plates, and the following UAs were added at concentrations up to 10 μM: C-2028, C-2041, C-2045 and C-2053. Stock solutions (10 mM) were prepared in sterile water, as well as dilutions, also in water. After 72 h, 3-(4, 5-dimethylthiazol-2-yl)-2,5-diphenyltetrazolium bromide (MTT; 800 μg/well) was added for 3 h, then the formazan crystals were dissolved in DMSO, and absorbance was read at 540 nm. Each point was conducted at least 4 times, and data are expressed relative to controls. The concentration of the drug required to inhibit cells growth by 50 (IC50), 80 (IC80) and 90% (IC90) compared to untreated control cells was determined from the curves plotting survival as a function of dose.

[5] = system: HCT116 cells; assay: MTT cell growth inhibition assay, HCT116; conditions: HCT116, 72 h
Experimental: as §3

[6] = system: active caspase-3 in H460 cells; assay: Active caspase-3 flow cytometry, H460; conditions: H460, IC90 doses, 120 h
Experimental: as §2, with “Caspase-3 activity” for “PARP cleavage”, “anti-active caspase-3” for “anti-cleaved PARP”

[7] = system: HCT116 cells; assay: Cell cycle analysis (PI, flow cytometry), HCT116; conditions: HCT116, IC90 doses; for cells with more than 4N DNA (polyploid): during the time of incubation (time not specified), control 10%
Experimental: After drug treatment, trypsinized and floating cells (2 × 10^6) were pooled, washed twice with ice-cold PBS and fixed in 70% (v/v) ethanol overnight at −20 °C. Cells were stained with propidium iodide (PI) (BD Biosciences, San Jose, CA, USA) and monitored by FACS Accuri C6 (BD Biosciences, San Jose, CA, USA).

[8] = system: HCT116 cells; assay: Annexin V/PI dual staining, HCT116; conditions: HCT116, IC90 doses, 120 h
Experimental: Annexin V–FITC binding was performed with an Annexin-V Fluos Staining kit (BD Biosciences, San Jose, CA, USA) according to manufacturer’s protocol. Briefly, after drug treatment, HCT116 and H460 cells (1 × 10^6) were trypsinized, washed twice with ice-cold PBS, pelleted and resuspended in 100 µL of binding buffer containing Annexin-V–FITC and PI. Cells were incubated for 15 min at room temperature in the dark, then diluted with 400 µL of binding buffer and analyzed by flow cytometry with FACS Accuri C6 (BD, San Jose, CA, USA). Cells with low FITC and PI fluorescence were considered viable. Cells that presented high FITC fluorescence but low PI fluorescence were regarded as early apoptotic. Late apoptotic cells presented high FITC and PI fluorescence. Necrotic cells had low FITC fluorescence and high PI fluorescence.

[9] = system: HCT116 cells; assay: Mitochondrial transmembrane potential (JC-1), HCT116; conditions: HCT116, IC90 doses, 120 h
Experimental: Changes in the mitochondrial membrane potential (ΔΨm) were analyzed by flow cytometry using 5,5′,6,6′-tetrachloro-1,1′,3,3′-tetraethylbenzimidazolyl-carbocyanine iodide, JC-1 (BD Biosciences, San Jose, CA, USA) according to manufacturer’s specification. Briefly, after treatment, HCT116 and H460 cells (1 × 10^6) were trypsinized, pelleted, resuspended in media and stained with JC-1 for 15 min at 37 °C. After staining, cells were washed twice with assay buffer and analyzed by flow cytometry with FACS Accuri C6 (BD, San Jose, CA, USA). The loss of ΔΨm was monitored based on the decrease in JC-1 red fluorescence concurrent with the increase in green fluorescence.

[10] = system: CCD 841 CoN cells; assay: MTT cell growth inhibition assay, CCD 841 CoN; conditions: CCD 841 CoN normal cells, 72 h
Experimental: as §3

[11] = system: active caspase-3 in HCT116 cells; assay: Active caspase-3 flow cytometry, HCT116; conditions: HCT116, IC90 doses, 120 h
Experimental: as §2, with “Caspase-3 activity” for “PARP cleavage”, “anti-active caspase-3” for “anti-cleaved PARP”

Row | Structure (SMILES) | number of colonies [1] | cells with cleaved PARP [2] | number of colonies [3] | IC50 ([4]; H460, 72 h) | IC90 ([4]; H460, 72 h) | IC50 ([4]; Homo sapiens, NCI-H460, 72 h) | IC90 ([4]; Homo sapiens, NCI-H460, 72 h) | IC50 [5] | IC90 [5] | IC50 ([5]; Homo sapiens, HCT-116, 72 h) | IC90 ([5]; Homo sapiens, HCT-116, 72 h) | cells with active caspase-3 [6] | Poli (polyploid cells) ([7]; 24 h) | cells in G1 ([7]; 24 h) | cells in G2/M ([7]; 24 h) | cells in S ([7]; 24 h) | cells in Sub-G1 ([7]; 24 h) | Poli (polyploid cells) ([7]; 72 h) | cells in G1 ([7]; 72 h) | cells in G2/M ([7]; 72 h) | further results
1 | CN(CCCNc1c2ccccc2nc2cccc([N+](=O)[O-])c12)CCCNc1ccc2ncn3c4ccccc4c(=O)c1c23 [Compound C-2028] | eight | approximately 10% | one | 0.016 ± 0.002 µM | 0.046 ± 0.004 µM | ≤ 0.016 µM | ≤ 0.05 µM | 0.01 ± 0.001 µM | 0.044 ± 0.005 µM | ≤ 0.016 µM | ≤ 0.05 µM | 44.9% | 5.73 ± 0.93% | 24.89 ± 3.90% | 45.89 ± 3.13% | 19.33 ± 1.58% | 3.37 ± 0.69% | 5.11 ± 1.54% | 28.63 ± 5.96% | 21.02 ± 4.86% | cells in S ([7]; 72 h): 7.67 ± 2.54%; cells in Sub-G1 ([7]; 72 h): 36.97 ± 8.93%; Poli (polyploid cells) ([7]; 120 h): 5.73 ±2.33%; cells in G1 ([7]; 120 h): 25.39 ± 3.25%; cells in G2/M ([7]; 120 h): 26.26 ± 4.90%; cells in S ([7]; 120 h): 4.95 ± 1.90%; cells in Sub-G1 ([7]; 120 h): 37.46 ± 9.35% and 37.5% and 30%; cells with more than 4N DNA (polyploid) [7]: 5%; cells in G2/M (4N DNA) ([7]; during the treatment after accumulation at 24 h (time not specified)): ~23%; annexin V positive cells (early and late apoptotic) [8]: 26.1%; cells with decreased mitochondrial transmembrane potential (ΔΨm) [9]: 34.3% and 30%; IC50 [10]: 0.025 ± 0.007 µM; IC90 ([10]; Homo sapiens): 3.69 ± 1.08 µM; IC50 ([10]; Homo sapiens, CCD-841CoN): ~0.02 µM; cells with active caspase-3 [11]: 34.8% and 40%
2 | O=c1c2ccccc2n2cnc3ccc(NCCCN4CCN(CCCNc5c6ccccc6nc6cccc([N+](=O)[O-])c56)CC4)c1c32 [Compound C-2041] | 77 colonies | approximately 10% | 7 colonies | 0.015 ± 0.002 µM | 0.046 ± 0.005 µM | ≤ 0.016 µM | ≤ 0.05 µM | 0.008 ± 0.002 µM | 0.049 ± 0.005 µM | ≤ 0.016 µM | ≤ 0.05 µM | 35.5% | 4.22 ± 2.00% | 28.75 ± 3.88% and 29% | 29.92 ± 4.56% | 25.97 ± 2.80% and 26% | 11.81 ± 1.94% | 4.47 ± 2.13% | 22.16 ± 5.06% | 14.29 ± 1.52% | cells in S ([7]; 72 h): 9.59 ± 2.24%; cells in Sub-G1 ([7]; 72 h): 48.83 ± 7.71%; Poli (polyploid cells) ([7]; 120 h): 4.64 ± 2.56%; cells in G1 ([7]; 120 h): 13.63 ± 3.71% and 13.6%; cells in G2/M ([7]; 120 h): 9.44 ± 3.88%; cells in S ([7]; 120 h): 3.25 ± 1.05%; cells with more than 4N DNA (polyploid) [7]: 5%; annexin V positive cells (early and late apoptotic) [8]: approximately 43%; cells with decreased mitochondrial transmembrane potential (ΔΨm) [9]: around 70%; cells with decreased mitochondrial transmembrane potential (ΔΨm) ([9]; listed as C-1041): 63.0%; IC90 ([10]; Homo sapiens): 5.12 ± 1.09 µM; IC50 ([10]; Homo sapiens, CCD-841CoN): 0.036 ± 0.005 µM; cells with active caspase-3 [11]: 39.5% and 40%
